# Source: patent US4499091A, “1-Amino (or substituted amino)-1,4-dihydro-4-oxo-6-fluoro-7-heterylquinoline-3-carboxylic acids and their use as antibacterial agents” (Sterling Drug Inc., priority 1983, dated 1985)
# Like-named read-outs stand apart in the source and are kept apart here.
# Assays:
# Escherichia coli Vogel [1] = experiment: in vitro antibacterial activity, serial dilution (MIC); format: cell-based; details: 18-20 hours static incubation, read-out: Minimal Inhibitory Concentration (MIC)
# Experimental: (§1) The in vitro antibacterial activity of the compounds of the invention was determined by conventional serial dilution procedures. Bacterial cultures were grown in tryptose phosphate broth or brain heart infusion broth (containing heat-inactivated normal horse serum for tests with S. pyogenes) overnight at 37° C. and subsequently diluted in double strength broth to provide bacterial inocula of about 2×10^5 cells/ml. Aqueous solutions of the compounds of the invention were prepared by dissolving the free acid form in 0.5N sodium hydroxide. The solutions were diluted with sterile distilled water to 1000 mcg/ml of compound in terms of the free acid. Serial two-fold dilutions of the compound stock solutions were prepared in water and 0.5 ml of each dilution was transferred to sets of tubes, one set for each bacterial inoculum.
# [2] = test system: Klebsiella pneumoniae 39645; experiment: as above; format: cell-based; details: 18-20 hours static incubation, read-out: Minimal Inhibitory Concentration (MIC)
# Experimental: as §1
# Proteus mirabilis MGH-1 = experiment: as above; format: cell-based; details: MGH1, 18-20 hours static incubation, read-out: Minimal Inhibitory Concentration (MIC)
# Experimental: as §1
# [3] = test system: Pseudomonas aeruginosa MGH-2; experiment: as above; format: cell-based; details: MGH2, 18-20 hours static incubation, read-out: Minimal Inhibitory Concentration (MIC)
# Experimental: as §1
# [4] = test system: Staphylococcus aureus Smith; experiment: as above; format: cell-based; details: 18-20 hours static incubation, read-out: Minimal Inhibitory Concentration (MIC)
# Experimental: as §1
# [5] = test system: Streptococcus pyogenes C203; experiment: as above; format: cell-based; details: 18-20 hours static incubation, read-out: Minimal Inhibitory Concentration (MIC)
# Experimental: as §1
# Escherichia coli Vogel [6] = experiment: in vivo antibacterial activity in mice infected with E. coli (PD50); parameters: species or system mouse (female) infected with Escherichia coli; details: sc, 168 h, mouse, E. coli, s.c., once one-half hour post infection, 7 days, read-out: Protective Dose (PD50)
# Experimental: (§2) The in vivo antibacterial activity of the compounds of the invention was determined in female mice, 18-20 grams each, by the following procedure:
# (§3) Aqueous solutions of the compounds to be tested were prepared by dissolving the free acid form in dilute sodium hydroxide and diluting the solution with distilled water to be desired volume.
# (§4) Cultures of Escherichia coli Vogel prepared in brain heart infusion broth, cultures of Klebsiella pneumoniae 39645 grown in tryptose phosphate broth with 5% rabbit serum diluted in the same broth and cultures of Pseudomonas aeruginosa MGH-2 grown on brain heart infusion agar and suspended in physiological saline, were used to infect the mice as follows:
# Mice infected with E. coli were medicated once (0.5 ml) one-half hour post infection, the test compound being administered by either the subcutaneous (s.c.) or oral (p.o.) route. Deaths were recorded daily for seven days.
# (§5) Groups of ten animals each for four or five dose levels were thus treated and the number of survivors in each group recorded. The fifty percent protective dose values (PD50) were then calculated.
# Proteus vulgaris 9920 = experiment: in vitro antibacterial activity, serial dilution (MIC); format: cell-based; details: 18-20 hours static incubation, read-out: Minimal Inhibitory Concentration (MIC)
# Experimental: as §1
# [7] = test system: Klebsiella pneumoniae 39645; experiment: in vivo antibacterial activity in mice infected with K. pneumoniae (PD50); parameters: species or system mouse (female) infected with Klebsiella pneumoniae; details: 336 h, mouse, K. pneumoniae, pre- and postinfection, 14 days, read-out: Protective Dose (PD50)
# Experimental: as §2, §3, §4
# K. pneumoniae: mice were inoculated intramuscularly in the right hind leg with 0.2 ml of the bacterial test inoculum (2.05×10^4 cells/ml).
# Mice infected with K. pneumoniae were medicated at the following times: seventeen hours and one hour preinfection, six hours postinfection and twice a day for the next three days. The test compound was administered by both subcutaneous (0.2 ml) and oral (0.5 ml) routes. Deaths were recorded daily for fourteen days.
# as §5
# [8] = Klebsiella pneumoniae, 39645, sc, s.c.
Compound,MIC (Escherichia coli Vogel [1]) [mg/L],MIC [2] [mg/L],MIC (Proteus mirabilis MGH-1) [mg/L],MIC [3] [mg/L],MIC [4] [mg/L],MIC [5] [mg/L],ED50 (Escherichia coli Vogel [6]) [mg/kg],MIC (Proteus vulgaris 9920) [mg/L],"ED50 [7, 8] [mg/kg]","ED50 ([7]; Klebsiella pneumoniae, 39645, po, p.o.) [mg/kg]"
"CNn1cc(C(=O)O)c(=O)c2cc(F)c(N3CCSCC3)cc21 [Example 21, 6-Fluoro-1,4-dihydro-1-methylamino-4-oxo-7-(4-thiomorpholinyl)-3-quinolinecarboxylic acid]",0.5,0.5,2,4,0.5,> 8,> 200,,,
"CCNn1cc(C(=O)O)c(=O)c2cc(F)c(N3CCN(C)CC3)cc21 [Example 5, 1-Ethylamino-6-fluoro-1,4-dihydro-7-(4-methyl-1-piperazinyl)-4-oxo-3-quinolinecarboxylic acid]",0.5,0.5,,,,31.3,4.1,0.25,90,
"CN1CCN(c2cc3c(cc2F)c(=O)c(C(=O)O)cn3N(C)C)CC1 [Example 7, 6-Fluoro-1-dimethylamino-1,4-dihydro-7-(4-methyl-1-piperazinyl)-4-oxo-3-quinolinecarboxylic acid]",0.5,2,2,2,,31.3,1.66,0.12,29,
"CCCNn1cc(C(=O)O)c(=O)c2cc(F)c(Cl)cc21 [7-Chloro-6-fluoro-1,4-dihydro-4-oxo-1-propylamino-3-quinolinecarboxylic acid]",15.6,31.3,,,15.6,15.6,,3.9,,
"CNn1cc(C(=O)O)c(=O)c2cc(F)c(N3CCCNCC3)cc21 [Example 19, 6-Fluoro-7-(hexahydro-1H-1,4-diazapin-1-yl)-1,4-dihydro-1-methylamino-4-oxo-3-quinolinecarboxylic acid]",,15.6,1.95,,,31.3,2.5,1,> 50,
"CNn1cc(C(=O)O)c(=O)c2cc(F)c(N3CCCC3)cc21 [Example 16, 6-Fluoro-1,4-dihydro-1-methylamino-4-oxo-7-(1-pyrrolidinyl)-3-quinolinecarboxylic acid]",1,,,,0.5,,> 200,0.5,> 200,
"CCN1CCN(c2cc3c(cc2F)c(=O)c(C(=O)O)cn3NC)CC1 [Example 8, 7-(4-Ethyl-1-piperazinyl)-6-fluoro-1,4-dihydro-1-methylamino-4-oxo-3-quinolinecarboxylic acid]",0.5,0.5,1,2,1,,1.4,0.25,15.1,
"CNn1cc(C(=O)O)c(=O)c2cc(F)c(N3CCN(C)CC3)cc21 [Example 1, 6-Fluoro-1,4-dihydro-1-methylamino-7-(4-methyl-1-piperazinyl)-4-oxo-3-quinolinecarboxylic acid]",0.25,0.25,0.5,1,,,,0.125,8.8,10.6
"CN1CCN(c2cc3c(cc2F)c(=O)c(C(=O)O)cn3N)CC1 [Example 3, 1-Amino-6-fluoro-1,4-dihydro-4-oxo-7-(4-methyl-1-piperazinyl)-3-quinolinecarboxylic acid]",2,2,2,15.6,,62.5,3.13,1,30.5,
"CNn1cc(C(=O)O)c(=O)c2cc(F)c(N3CCCCC3)cc21 [Example 15, 6-Fluoro-1,4-dihydro-1-methylamino-4-oxo-7-(1-piperidinyl)-3-quinolinecarboxylic acid]",,,,,1.95,,> 200,0.5,> 200,
